Results taken from US20230192644A1, “PIPERIDINE-2,6-DIONES AS SMALL MOLECULE DEGRADERS OF HELIOS AND METHODS OF USE” (DANA-FARBER CANCER INSTITUTE, INC., priority 2020, published 2023).
Read-outs that look alike come from different tables or passages of the source.

Legend:
Type in all cases: cell-based
[1] = target: T1, IKZF1 (Homo sapiens, UniProt Q13422); test: GFP-IKZF1 cellular degradation assay (eGFP fusion/mCherry reporter, Flip-In 293 cells)
T1 construct: expressed in transfected cells
Experimental: IKZF1A and IKZF2A were subcloned into mammalian pcDNA5/FRT Vector (Ampicillin and Hygromycin B resistant) modified to contain MCS-eGFP-P2A-mCherry. […] Following 2-3 passage cycle, FACS (FACSAria™ II, BD) was used to enrich for cells expressing eGFP and mCherry.
(§1) Cells stably expressing the IKZF1A, or IKZF2A GFP fusions with mCherry reporter were seeded at 30-50% confluency in 384-well plates with 50 μL FluoroBrite™ DMEM media (Thermo Fisher Scientific™ A18967) containing 10% FBS per well a day before compound treatment. Compound titrations were dispensed using a D300e Digital Dispenser (HP), normalized to 0.5% DMSO, and incubated with cells for 5 hours.
The assay plate was imaged immediately using an Acumen High Content Imager (TTP Labtech) with 488 nm and 561 nm lasers in 2 μm×1 μm grid per well format. […] A series of image analysis steps (‘image analysis pipeline’) was constructed. First, the red and green channels were aligned and cropped to target the middle of each well (to avoid analysis of heavily clumped cells at the edges), and a background illumination function was calculated for both red and green channels of each well individually and subtracted to correct for illumination variations across the 384-well plate from various sources of error. An additional step was then applied to the green channel to suppress the analysis of large auto fluorescent artifacts and enhance the analysis of cell specific fluorescence by way of selecting for objects under a given size, 30 A.U., and with a given shape, speckles. mCherry-positive cells were then identified in the red channel filtering for objects between 8-60 pixels in diameter and using intensity to distinguish between clumped objects. The green channel was then segmented into GFP positive and negative areas and objects were labeled as GFP positive if at least 40% of it overlapped with a GFP positive area. The fraction of GFP-positive cells/mCherry-positive cells in each well was then calculated, and the green and red images were rescaled for visualization. The concentrations that lead to half degradation at 5 h (DC50, 5h) were calculated using the nonlinear fit variable slope model (GraphPad Software).

[2] = system: IKZF2; test: GFP-IKZF2 cellular degradation assay (eGFP fusion/mCherry reporter, Flip-In 293 cells); settings: Flip-In 293 cells stably expressing IKZF2 GFP fusion with mCherry reporter, 5 h
Experimental: IKZF1A and IKZF2A were subcloned into mammalian pcDNA5/FRT Vector (Ampicillin and Hygromycin B resistant) modified to contain MCS-eGFP-P2A-mCherry. Stable cell lines expressing eGFP-protein fusion and mCherry reporter were generated using Flip-In 293 system. Plasmid (0.3 μg) and pOG44 (4.7 μg) DNA were preincubated in 100 μL of Opti-MEM™ I (Gibco™, Life Technologies™) media containing 0.05 mg/mL Lipofectamine™ 2000 (Invitrogen™) for 20 min and added to Flip-In 293 cells containing 1.9 mL of DMEM media (Gibco™, Life Technologies™) per well in a 6-well plate format (Falcon, 353046). Cells were propagated for 48 h and were then transferred into a 10 cm^2 plate (Corning, 430165) in DMEM media containing 50 μg/mL of Hygromycin B (REF 10687010, Invitrogen™) as a selection marker. Following 2-3 passage cycle, FACS (FACSAria™ II, BD) was used to enrich for cells expressing eGFP and mCherry.
as §1
The assay plate was imaged immediately using an Acumen High Content Imager (TTP Labtech) with 488 nm and 561 nm lasers in […] per well format. The resulting images were analyzed using CellProfiler (Carpenter et al., Genome Biol. 2006, 7:R100). A series of image analysis steps (‘image analysis pipeline’) was constructed. First, the red and green channels were aligned and cropped to target the middle of each well (to avoid analysis of heavily clumped cells at the edges), and a background illumination function was calculated for both red and green channels of each well individually and subtracted to correct for illumination variations across the 384-well plate from various sources of error. An additional step was then applied to the green channel to suppress the analysis of large auto fluorescent artifacts and enhance the analysis of cell specific fluorescence by way of selecting for objects under a given size, 30 A.U., and with a given shape, speckles. mCherry-positive cells were then identified in the red channel filtering for objects between 8-60 pixels in diameter and using intensity to distinguish between clumped objects. The green channel was then segmented into GFP positive and negative areas and objects were labeled as GFP positive if at least 40% of it overlapped with a GFP positive area. The fraction of GFP-positive cells/mCherry-positive cells in each well was then calculated, and the green and red images were rescaled for visualization. The concentrations that lead to half degradation at 5 h (DC50, 5h) were calculated using the nonlinear fit variable slope model (GraphPad Software).

[3] = target: T2, IKZF2 (Homo sapiens, UniProt Q96SW2+Q9UKS7); test: HiBit-IKZF2 degradation assay in Molt4 cells
T2 construct: knocked into the endogenous IKZF2 or IKZF1 locus of Molt4 cells; endogenous in cells; host or cells: Molt4 (CRISPR/Cas9 HiBit knock-in)
T2 sequence (Q9UKS7 whole entry): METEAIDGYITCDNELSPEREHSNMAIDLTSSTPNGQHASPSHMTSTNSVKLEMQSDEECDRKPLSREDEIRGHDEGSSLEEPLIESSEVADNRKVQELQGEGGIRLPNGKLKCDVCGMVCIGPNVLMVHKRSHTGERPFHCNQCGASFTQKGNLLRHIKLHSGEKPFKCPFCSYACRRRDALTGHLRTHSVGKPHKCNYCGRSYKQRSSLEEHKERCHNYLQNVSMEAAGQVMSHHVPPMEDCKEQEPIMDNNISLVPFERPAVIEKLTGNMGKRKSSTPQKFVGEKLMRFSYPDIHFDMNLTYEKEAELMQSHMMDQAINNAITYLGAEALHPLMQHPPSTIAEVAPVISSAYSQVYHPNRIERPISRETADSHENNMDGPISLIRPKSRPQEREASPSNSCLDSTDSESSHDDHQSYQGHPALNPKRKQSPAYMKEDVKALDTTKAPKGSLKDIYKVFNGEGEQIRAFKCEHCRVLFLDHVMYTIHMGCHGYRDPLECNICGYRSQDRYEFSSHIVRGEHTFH
T2 sequence (Q96SW2 whole entry): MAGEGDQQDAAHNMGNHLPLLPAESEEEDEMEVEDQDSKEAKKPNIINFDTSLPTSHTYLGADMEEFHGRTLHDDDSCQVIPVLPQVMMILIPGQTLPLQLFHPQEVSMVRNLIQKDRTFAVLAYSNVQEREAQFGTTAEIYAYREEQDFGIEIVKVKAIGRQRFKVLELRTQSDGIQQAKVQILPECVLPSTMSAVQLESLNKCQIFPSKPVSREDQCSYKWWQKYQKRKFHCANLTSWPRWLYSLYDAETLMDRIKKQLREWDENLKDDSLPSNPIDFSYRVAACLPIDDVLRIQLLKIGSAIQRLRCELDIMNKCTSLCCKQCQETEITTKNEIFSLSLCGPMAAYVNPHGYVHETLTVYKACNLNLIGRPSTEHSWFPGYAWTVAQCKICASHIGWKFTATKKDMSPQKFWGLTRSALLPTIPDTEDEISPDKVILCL
T2 sequence (Q16531 whole entry partner): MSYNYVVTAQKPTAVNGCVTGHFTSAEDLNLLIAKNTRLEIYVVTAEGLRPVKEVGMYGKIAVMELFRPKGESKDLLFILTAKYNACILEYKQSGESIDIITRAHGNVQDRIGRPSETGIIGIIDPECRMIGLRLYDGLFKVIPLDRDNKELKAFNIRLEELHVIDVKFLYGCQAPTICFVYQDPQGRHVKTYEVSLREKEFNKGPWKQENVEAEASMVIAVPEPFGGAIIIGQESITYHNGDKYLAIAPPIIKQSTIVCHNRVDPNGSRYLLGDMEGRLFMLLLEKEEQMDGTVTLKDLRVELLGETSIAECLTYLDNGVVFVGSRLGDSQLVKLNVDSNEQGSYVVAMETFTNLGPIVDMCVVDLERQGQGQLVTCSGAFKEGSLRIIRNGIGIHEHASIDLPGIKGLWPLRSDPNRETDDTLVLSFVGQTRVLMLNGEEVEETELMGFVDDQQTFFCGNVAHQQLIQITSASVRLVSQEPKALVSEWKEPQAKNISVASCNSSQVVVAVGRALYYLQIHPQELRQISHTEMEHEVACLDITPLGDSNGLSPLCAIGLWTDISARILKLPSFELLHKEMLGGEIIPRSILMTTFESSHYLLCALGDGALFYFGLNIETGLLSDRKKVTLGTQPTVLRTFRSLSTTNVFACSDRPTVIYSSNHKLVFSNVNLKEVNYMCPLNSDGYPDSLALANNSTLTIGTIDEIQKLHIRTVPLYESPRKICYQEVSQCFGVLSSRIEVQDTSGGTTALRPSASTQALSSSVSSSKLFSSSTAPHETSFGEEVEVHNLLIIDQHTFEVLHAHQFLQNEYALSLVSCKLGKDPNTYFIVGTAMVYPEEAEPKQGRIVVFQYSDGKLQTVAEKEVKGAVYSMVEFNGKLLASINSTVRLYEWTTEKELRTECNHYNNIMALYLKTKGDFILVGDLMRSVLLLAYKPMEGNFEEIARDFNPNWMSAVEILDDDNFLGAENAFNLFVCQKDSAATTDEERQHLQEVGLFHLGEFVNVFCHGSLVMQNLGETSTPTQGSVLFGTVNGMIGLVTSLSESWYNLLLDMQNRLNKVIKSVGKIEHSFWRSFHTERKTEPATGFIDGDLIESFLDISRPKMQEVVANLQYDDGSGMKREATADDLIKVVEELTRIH
Experimental: (§2) The HiBit tag was knocked into the endogenous IKZF2 or IKZF1 locus of Molt4 cells to generate a HiBit-IKZF2 or HiBit-IKZF1 fusion proteins via CRISPR/Cas9 gene editing. Cells were then treated with a 12 point concentration curve of the indicated compounds, and luminescence (corresponding to Helios abundance) was detected after 6 hours using the Nano-Glo® HiBit Lytic Detection system (Promega™). The concentration necessary to achieve 50% degradation (DC50) was calculated using Prism (GraphPad).

[4] = target: T3, IKZF1 (Homo sapiens, UniProt Q13422+Q96SW2); test: HiBit-IKZF1 degradation assay in Molt4 cells
T3 construct: knocked into the endogenous IKZF2 or IKZF1 locus of Molt4 cells; endogenous in cells; host or cells: Molt4 (CRISPR/Cas9 HiBit knock-in)
T3 sequence (Q13422 whole entry): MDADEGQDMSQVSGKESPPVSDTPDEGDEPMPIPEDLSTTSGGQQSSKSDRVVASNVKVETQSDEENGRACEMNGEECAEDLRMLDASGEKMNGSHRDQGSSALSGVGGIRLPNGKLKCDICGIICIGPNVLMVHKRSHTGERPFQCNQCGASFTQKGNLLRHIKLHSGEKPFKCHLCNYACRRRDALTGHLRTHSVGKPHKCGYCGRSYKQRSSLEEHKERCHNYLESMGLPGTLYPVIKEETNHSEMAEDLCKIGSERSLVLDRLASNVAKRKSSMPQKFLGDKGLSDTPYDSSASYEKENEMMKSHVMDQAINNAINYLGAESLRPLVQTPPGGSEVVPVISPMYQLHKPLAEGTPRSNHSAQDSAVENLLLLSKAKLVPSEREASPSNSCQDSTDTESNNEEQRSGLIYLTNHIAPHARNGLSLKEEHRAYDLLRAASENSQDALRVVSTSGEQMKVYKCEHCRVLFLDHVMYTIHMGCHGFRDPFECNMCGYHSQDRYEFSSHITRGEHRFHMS
T3 sequence (Q96SW2 whole entry): as the sequence (Q96SW2 whole entry) above
T3 sequence (Q16531 whole entry partner): as the sequence (Q16531 whole entry partner) above
Experimental: as §2

[5] = Flip-In 293 cells stably expressing IKZF1 GFP fusion with mCherry reporter, 5 h; read-out: GFP IKZF1 DC50
[6] = read-out: GFP IKZF1 DC50; Flip-In 293 cells stably expressing IKZF1 GFP fusion with mCherry reporter, 5 h
[7] = read-out: IKZF2 DC50; Molt4 cells with endogenous HiBit-IKZF2 knock-in, 6 hours, Nano-Glo HiBit luminescence
[8] = read-out: IKZF1 DC50; Molt4 cells with endogenous HiBit-IKZF1 knock-in, 6 hours, Nano-Glo HiBit luminescence

T1 sequence (Q13422 83-213 isoform Q13422-7 limits assumed): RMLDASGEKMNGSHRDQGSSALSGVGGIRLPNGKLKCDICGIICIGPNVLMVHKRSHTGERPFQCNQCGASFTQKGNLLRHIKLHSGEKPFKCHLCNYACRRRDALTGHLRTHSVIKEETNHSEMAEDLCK
T1 sequence (Q96SW2 whole entry partner, the tested form may be a part): as the sequence (Q96SW2 whole entry) above
T1 sequence (Q16531 whole entry partner, the tested form may be a part): as the sequence (Q16531 whole entry partner) above

DC50 [1, 5] [nM] | DC50 [2] [nM] | SMILES | further results
80 | 85 | CC(CC(=O)Nc1ccnc(Cl)c1)c1cccc(NC2=CC(=O)N(C3CCC(=O)NC3=O)C2=O)c1 (centres unmarked) [Compound 9] | 
50 | 2.2 | Cc1ccc(NC(=O)CC(c2cccc(NC3=CC(=O)N(C4CCC(=O)NC4=O)C3=O)c2)C(C)C)cc1Cl (centres unmarked) [Compound 30, N-(3-chloro-4-methylphenyl)-3-(3-((1-(2,6-dioxopiperidin-3-yl)-2,5-dioxo-2,5-dihydro-1H-pyrrol-3-yl)amino)phenyl)-4-methylpentanamide] | 
6.4 | 19 | CC(c1cccc(NC2=CC(=O)N(C3CCC(=O)NC3=O)C2=O)c1)N1CC(Oc2ccccc2)C1 (centres unmarked) [Compound 27] | 
10 | 17 | CC(CC(=O)Nc1ccc(Cl)nc1)c1cccc(NC2=CC(=O)N(C3CCC(=O)NC3=O)C2=O)c1 (centres unmarked) [Compound 8] | 
14 | 134 | O=C1CCC(N2C(=O)C=C(Nc3cccc(C4CC(C(=O)Nc5cccc(C(F)(F)F)c5)C4)c3)C2=O)C(=O)N1 (centres unmarked) [Compound 22] | 
2 | 4.4 | Cc1ccc(NC(=O)C2CC2c2cccc(NC3=CC(=O)N(C4CCC(=O)NC4=O)C3=O)c2)cc1Cl (centres unmarked) [Compound 21] | 
23 | 48 | CC(CC(=O)Nc1cccnc1Cl)c1cccc(NC2=CC(=O)N(C3CCC(=O)NC3=O)C2=O)c1 (centres unmarked) [Compound 7] | 
50 | 24 | CC(C)(CCNc1ccc(C(F)(F)F)c(Cl)c1)c1cccc(NC2=CC(=O)N(C3CCC(=O)NC3=O)C2=O)c1 (centres unmarked) [Compound 80, 3-(3-((3-(4-((3-chloro-4-(trifluoromethyl)phenyl)amino)-2-methylbutan-2-yl)phenyl)amino)-2,5-dioxo-2,5-dihydro-1H-pyrrol-1-yl)piperidine-2,6-dione] | 
5.2 | 4.4 | CN(C)CC(CC(=O)Nc1ccc(C(F)(F)F)c(Cl)c1)c1cccc(NC2=CC(=O)N(C3CCC(=O)NC3=O)C2=O)c1 (centres unmarked) [Compound 73, N-(3-chloro-4-(trifluoromethyl)phenyl)-4-(dimethylamino)-3-(3-((1-(2,6-dioxopiperidin-3-yl)-2,5-dioxo-2,5-dihydro-1H-pyrrol-3-yl)amino)phenyl)butanamide] | 
38 | 101 | O=C1CCC(N2C(=O)C=C(Nc3cccc([C@H]4CNCC4C(=O)Nc4cccc(C(F)(F)F)c4)c3)C2=O)C(=O)N1 (some centres unmarked) [Compound 23] | 
6.8 | 9.2 | CC(C)(NCc1cccc(C(F)(F)F)c1)c1cccc(NC2=CC(=O)N(C3CCC(=O)NC3=O)C2=O)c1 (centres unmarked) [Compound 64] | 
5.8 | 13 | CC(c1cccc(NC2=CC(=O)N(C3CCC(=O)NC3=O)C2=O)c1)N1CC(c2ccccc2)C1 (centres unmarked) [Compound 25] | 
39 | 8.8 | Cc1ccc(NC(=O)CC2(c3cccc(NC4=CC(=O)N(C5CCC(=O)NC5=O)C4=O)c3)CCOCC2)cc1Cl (centres unmarked) [Compound 18] | 
2.8 | 8.9 | CC(c1cccc(NC2=CC(=O)N(C3CCC(=O)NC3=O)C2=O)c1)N1CC(Cc2ccccc2)C1 (centres unmarked) [Compound 26] | 
11 | 12 | CN(CCc1ccc(C(F)(F)F)c(Cl)c1)C(C)(C)c1cccc(NC2=CC(=O)N(C3CCC(=O)NC3=O)C2=O)c1 (centres unmarked) [Compound 67, 3-(3-((3-(2-((3-chloro-4-(trifluoromethyl)phenethyl)(methyl)amino)propan-2-yl)phenyl)-amino)-2,5-dioxo-2,5-dihydro-1H-pyrrol-1-yl)piperidine-2,6-dione] | DC50 ([3]; Molt4 cells with endogenous HiBit-IKZF2 knock-in, 6 hours, Nano-Glo HiBit luminescence; read-out: IKZF2 DC50): 25 nM; DC50 ([4]; Molt4 cells with endogenous HiBit-IKZF1 knock-in, 6 hours, Nano-Glo HiBit luminescence; read-out: IKZF1 DC50): 47 nM

SMILES | DC50 [1, 5] [nM] | DC50 [2] [nM] | further results
CN(CCc1ccc(C(F)(F)F)c(Cl)c1)Cc1cccc(NC2=CC(=O)N(C3CCC(=O)NC3=O)C2=O)c1 (centres unmarked) [Compound 48, 3-(3-((-(((3-chloro-4-(trifluoromethyl)phenethyl)(methyl)amino)methyl)phenyl)amino)-2,5-dioxo-2,5-dihydro-1H-pyrrol-1-yl)piperidine-2,6-dione] |  | 19 | DC50 [1, 6]: 3.7 nM
CC(C)(NCCc1ccc(C(F)(F)F)c(Cl)c1)c1cccc(NC2=CC(=O)N(C3CCC(=O)NC3=O)C2=O)c1 (centres unmarked) [Compound 66, 3-(3-((3-(2-((3-chloro-4-(trifluoromethyl)phenethyl)amino)propan-2-yl)phenyl)amino)-2,5-dioxo-2,5-dihydro-1H-pyrrol-1-yl)piperidine-2,6-dione] |  | 1.2 | DC50 [1, 6]: 1.1 nM; DC50 [3, 7]: 2.3 nM; DC50 [4, 8]: 3.8 nM
Cc1ccc(NC(=O)CN(C)c2cccc(NC3=CC(=O)N(C4CCC(=O)NC4=O)C3=O)c2)cc1Cl (centres unmarked) [Compound 44, N-(3-chloro-4-methylphenyl)-2-[(3-{[1-(2,6-dioxopiperidin-3-yl)-2,5-dioxo-2,5-dihydro-1H-pyrrol-3-yl]amino}phenyl)(methyl)amino]acetamide] | 3.7 | 6.9 | 
CCC(NCCc1ccc(C(F)(F)F)c(Cl)c1)c1cccc(NC2=CC(=O)N(C3CCC(=O)NC3=O)C2=O)c1 (centres unmarked) [Compound 60, 3-(3-((3-(1-((3-chloro-4-(trifluoromethyl)phenethyl)-amino)propyl)phenyl)amino)-2,5-dioxo-2,5-dihydro-1H-pyrrol-1-yl)piperidine-2,6-dione] |  | 6 | DC50 [1, 6]: 18 nM; DC50 [3, 7]: 42 nM; DC50 [4, 8]: 240 nM
